Source: patent US7544675B2, “Chemical compounds with dual activity, processes for their preparation and pharmaceutical compositions” (UCB, S.A., priority 2002, dated 2009)

What was measured:
[1] = system: PDE IV; assay: PDE IV enzymatic activity (SPA phosphodiesterase assay, cytosolic fraction from U937 cells); format: biochemical; conditions: qualitative statement
Experimental: Cytosolic fraction from U937 cells pre-stimulated for 4 h at 37° C. with a mixture of rolipram 30 μM and salbutamol 1 μM (Torphy T. J., Zhou H. L., Cieslinski L. B., J. Pharmacol. Exp. Ther. (1992), 263 (3), 1195-1205).
Assays were performed in 100 μL of 50 mM Tris HCl buffer (pH 7.4) containing 5 mM MgCl2, 2 mM EGTA, 20 nM of [^3H]-cAMP (40-60 Ci/mmol), the cytosolic fraction of 50,000 U937 cells and the appropriate concentration of test compound (usually 10 μM) dissolved in DMSO (final assay concentration not exceeding 1%). After 30 min incubation at room temperature, 0.5 mg of SPA yttrium silicate beads are added to each sample. Radioactivity bound to the beads (5′-AMP) is determined by liquid scintillation. Non PDE IV activity and/or non specific binding of the labeled substrate to the SPA beads is defined as the residual radioactivity remaining in the presence of rolipram 32 μM (non PDE IV activity represents about 40% of total activity). PDE IV activity is determined by subtracting the non PDE TV activity from the total activity.

[2] = target: T1, human m3 muscarinic receptor (Homo sapiens, UniProt P20309); assay: Affinity for human muscarinic receptors ([3H]-NMS binding, CHO cell membranes); conditions: qualitative statement
T1 construct: expressed in transfected cells; host or cells: CHO (Chinese Hamster Ovarian) cells, crude membrane fraction
Experimental: Chinese Hamster Ovarian cells (CHO) expressing the human recombinant m1, m2, m3, m4 and m5 receptors were cultured in Ham's F12 media supplemented with 100 IU/ml of penicillin, 100 μg/ml of streptomycin, 400 μg/ml of geneticin and 5% of fetal bovine serum. Cell cultures were maintained in a humidified incubator at 37° C. and 5% CO2.
Confluent CHO cells expressing human m1, m2, m3, m4 and m5 muscarinic receptors were harvested and resuspended in phosphate buffered saline without calcium and magnesium. The cell suspension was centrifuged at 1500×g for 3 min (4° C.). The cell pellet was homogenized in a 15 mM Tris-HCl (pH 7.5) buffer containing 2 mM MgCl2, 0.3 mM EDTA and 1 mM EGTA. The crude membrane fraction was collected by two consecutive centrifugation steps at 40,000×g for 25 min (4° C.). The final pellet was resuspended, at a protein concentration ranging from 2 to 6 mg/ml, in a 7.5 mM Tris-HCl (pH 7.5) buffer containing 12.5 mM MgCl2, 0.3 mM EDTA, 1 mM EGTA and 250 mM sucrose and stored in liquid nitrogen.
Binding assays were performed according to procedure described in: Buckley N. J., Bonner T. I., Buckley C. M., Brann M. R., Mol. Pharmacol. (1989), 35, 469-476, but with slight modifications.
Briefly, 25 to 50 μg of membrane proteins were incubated at room temperature in 1 ml of a 50 mM Tris-HCl (pH 7.4) buffer containing 2 mM of MgCl2, 0.1 nM of [^3H]-NMS (N-methylscopolamine, 85 Ci/mmol, from Apbiotech, UK) and increasing concentrations of test compound dissolved in DMSO (1% final concentration). Non specific binding was measured in the presence of 1 μM atropine. After 60 (m2) or 120 (m3) min. incubation, assays were stopped by rapid vacuum filtration of the samples through glass fiber filters (Filtermat A, Wallac, Belgium) presoaked in 0.3% polyethyleneimine for at least 2 h. Samples were further rinsed with 8 ml of ice-cold 50 mM Tris-HCl (pH 7.4) buffer. Radioactivity trapped onto the filter was counted in a Betaplate counter (Wallac). Competition binding curves were analyzed by non-linear regression with XLfit software (UDBS, UK).

T1 sequence (P20309 whole entry): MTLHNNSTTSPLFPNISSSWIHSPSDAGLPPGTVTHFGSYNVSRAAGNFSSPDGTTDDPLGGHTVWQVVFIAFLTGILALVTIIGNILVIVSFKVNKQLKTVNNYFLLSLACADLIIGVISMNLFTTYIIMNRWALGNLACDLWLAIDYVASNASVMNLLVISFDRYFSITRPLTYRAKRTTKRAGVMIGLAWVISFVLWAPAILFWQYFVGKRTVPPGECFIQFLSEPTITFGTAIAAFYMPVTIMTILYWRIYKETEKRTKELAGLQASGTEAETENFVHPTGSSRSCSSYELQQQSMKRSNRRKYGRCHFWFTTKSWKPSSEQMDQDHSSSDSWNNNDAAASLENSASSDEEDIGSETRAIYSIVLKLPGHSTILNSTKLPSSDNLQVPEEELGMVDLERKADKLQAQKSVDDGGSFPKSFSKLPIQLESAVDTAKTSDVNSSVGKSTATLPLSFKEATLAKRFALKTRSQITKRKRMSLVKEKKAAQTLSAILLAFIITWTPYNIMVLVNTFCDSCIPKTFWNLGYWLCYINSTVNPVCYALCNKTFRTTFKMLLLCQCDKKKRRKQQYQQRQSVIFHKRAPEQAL

| Structure (SMILES) | Dual high affinities: m3 receptor part [2] | Dual high affinities: PDE IV part [1] |
| --- | --- | --- |
| c1c(N2CCCCCC2)nc(C2CC2)nc1N1CCC1 [Compound 192, 1-(6-azetidin-1-yl-2-cyclopropylpyrimidin-4-yl)azepane] | high affinities | high affinities |
| c1c(NC2CC2)nc(C2CC2)nc1N1CCCCCC1 [Compound 62, 6-(1-azepanyl)-N,2-dicyclopropyl-4-pyrimidinamine] | high affinities | high affinities |
| Cc1c(NC2CC2)nc(C2CC2)nc1N1CCCCC1C (racemic) [Compound 177, N,2-dicyclopropyl-5-methyl-6-(2-methyl-1-piperidinyl)-4-pyrimidinamine] | high affinities | high affinities |
| Fc1c(NC2CC2)nc(C2CC2)nc1N1CCCCCC1 [Compound 60, 6-(1-azepanyl)-N,2-dicyclopropyl-5-fluoro-4-pyrimidinamine] | high affinities | high affinities |
| CCc1c(NC2CC2)nc(C2CC2)nc1N1CCC(C)CC1 [Compound 94, N,2-dicyclopropyl-5-ethyl-6-(4-methyl-1-piperidinyl)-4-pyrimidinamine] | high affinities | high affinities |
| Cc1c(N2CCCCCC2)nc(C2CC2)nc1N1CCC1 [Compound 184, 1-(6-azetidin-1-yl-2-cyclopropyl-5-methylpyrimidin-4-yl)azepane] | high affinities | high affinities |
| Cc1c(NC2CC2)nc(C(C)C)nc1N1CCCCCC1 [Compound 64, 6-(1-azepanyl)-N-cyclopropyl-2-isopropyl-5-methyl-4-pyrimidinamine] | high affinities | high affinities |
| Cc1c(NC2CC2)nc(C2CC2)nc1N1CCCCCC1 [Compound 56, 6-(1-azepanyl)-N,2-dicyclopropyl-5-methyl-4-pyrimidinamine] | high affinities | high affinities |
| Cc1c(NC2CC2)nc(C2CCCC2)nc1N1CCCCCC1 [Compound 154, 6-(1-azepanyl)-2-cyclopentyl-N-cyclopropyl-5-methyl-4-pyrimidinamine] | high affinities | high affinities |
| Cc1c(NC2CC2)nc(C2CC2)nc1N1CCC(C)(C)CC1 [Compound 79, N,2-dicyclopropyl-6-(4,4-dimethyl-1-piperidinyl)-5-methyl-4-pyrimidinamine] | high affinities | high affinities |
| Cc1c(NC2CC2)nc(C2CC2)nc1N1CC=CCC1 [Compound 112, N,2-dicyclopropyl-6-(3,6-dihydro-1(2H)-pyridinyl)-5-methyl-4-pyrimidinamine] | high affinities | high affinities |
| Cc1c(NC2CCC(C)CC2)nc(C2CC2)nc1NC1CC1 (stereo not drawn) [Compound 145, N^4,2-dicyclopropyl-5-methyl-N^6-(4-methylcyclohexyl)-4,6-pyrimidinediamine] | high affinities | high affinities |
| Clc1c(NC2CC2)nc(C2CC2)nc1N1CCCCCC1 [Compound 59, 6-(1-azepanyl)-5-chloro-N,2-dicyclopropyl-4-pyrimidinamine] | high affinities | high affinities |
| CC1CN(c2cc(N3CCCCCC3)nc(C3CC3)n2)C1 [Compound 191, 1-[2-cyclopropyl-6-(3-methylazetidin-1-yl)pyrimidin-4-yl]azepane] | high affinities | high affinities |
| Cc1c(NC2CC2)nc(C2CC2)nc1N1CCC(C)CC1 [Compound 95, N,2-dicyclopropyl-5-methyl-6-(4-methyl-1-piperidinyl)-4-pyrimidinamine] | high affinities | high affinities |
| Cc1c(N2CCCCCC2)nc(C2CC2)nc1N1CC(F)C1 [Compound 194, 1-[2-cyclopropyl-6-(3-fluoroazetidin-1-yl)-5-methylpyrimidin-4-yl]azepane] | high affinities | high affinities |
| CCc1c(NC2CC2)nc(C2CC2)nc1N1CCSCC1 [Compound 118, N,2-dicyclopropyl-5-ethyl-6-(4-thiomorpholinyl)-4-pyrimidinamine (1:1)] | high affinities | high affinities |

Further lines, with some results ahead:

| Dual high affinities: m3 receptor part [2] | Structure (SMILES) | Dual high affinities: PDE IV part [1] |
| --- | --- | --- |
| high affinities | Cc1c(NC2CC2)nc(C2CC2C)nc1N1CCCCCC1 (single isomer, unassigned) [Compound 67, 6-(1-azepanyl)-N-cyclopropyl-5-methyl-2-(2-methylcyclopropyl)-4-pyrimidinamine] | high affinities |
| high affinities | CC1CC1c1nc(NC2CCCCC2)cc(NC2CC2)n1 (single isomer, unassigned) [Compound 144, N^4-cyclohexyl-N^6-cyclopropyl-2-(2-methylcyclopropyl)-4,6-pyrimidinediamine] | high affinities |
| high affinities | Cc1c(NC2CC2)nc(C2CC2C)nc1N1CCC(C)CC1 (racemic) [Compound 98, N-cyclopropyl-5-methyl-2-(2-methylcyclopropyl)-6-(4-methyl-1-piperidinyl)-4-pyrimidinamine] | high affinities |
| high affinities | Cc1c(NC2CC2)nc(C2CCC2)nc1N1CCCCCC1 [Compound 55, 6-(1-azepanyl)-2-cyclobutyl-N-cyclopropyl-5-methyl-4-pyrimidinamine] | high affinities |
| high affinities | Cc1c(NC2CC2)nc(C2CC2C)nc1N1CCCCCC1 (racemic) [Compound 65, 6-(1-azepanyl)-N-cyclopropyl-5-methyl-2-(2-methylcyclopropyl)-4-pyrimidinamine] | high affinities |
| high affinities | Cc1c(N2CCCCCC2)nc(C2CC2)nc1N1CC(O)C1 [Compound 189, 1-(6-azepan-1-yl-2-cyclopropyl-5-methylpyrimidin-4-yl)azetidin-3-ol] | high affinities |
| high affinities | Brc1c(NC2CC2)nc(C2CC2)nc1N1CCCCCC1 [Compound 61, 6-azepan-1-yl-5-bromo-N,2-dicyclopropyl-4-pyrimidinamine] | high affinities |
| high affinities | Cc1c(NC2CC2)nc(C2CC2)nc1N1CC2CCC(C2)C1 [Compound 115, 6-(3-azabicyclo[3.2.1]oct-3-yl)-N,2-dicyclopropyl-5-methyl-4-pyrimidinamine] | high affinities |
| high affinities | Cc1c(NC2CC2)nc(C2CC2)nc1N1CCCCCCC1 [Compound 72, 6-(1-azocanyl)-N,2-dicyclopropyl-5-methyl-4-pyrimidinamine] | high affinities |
| high affinities | Cc1c(NC2CC2)nc(C2CC2)nc1N1CCCC1 [Compound 180, N,2-dicyclopropyl-5-methyl-6-(1-pyrrolidinyl)-4-pyrimidinamine] | high affinities |
